This is an account of results in ChEMBL document CHEMBL6153167, “Development of the Pyrido[2,3-d]pyrimidin-7(8H)-one Scaffold toward Potent and Selective NUAK1 Inhibitors” (ACS Med Chem Lett, 2025).

Data set [1] in a line: Selectivity ratio of IC50 for inhibition of MARK3 (unknown origin) to IC50 for inhibition of NUAK1 (unknown origin).
A short description of data set [2]: Unbound brain-to-plasma concentration ratio (Kp,uu, brain) in ICR mouse at 2.5 mg/kg, iv and measured upto 6 hrs by LC-MS/MS analysis. In kind it is ADME, organism-based. The settings on record: read-out: K(p,uu,brain).
Data set [3] in a line: Protein binding in mouse plasma assessed as fraction unbound at 10 uM incubated for 6 hrs with rotation by dialysis based LC-MS/MS analysis. The data set is classed as ADME, cell-free.

Structures are written as SMILES.

In the case of `CC(C)N1CCN(c2ccc(Nc3ncc4ccn(CC5CCOC(C)(C)C5)c4n3)cc2)CC1` (stereo not given), the Ratio IC50 in data set [1] amounted to 2290.

For the molecule `Cc1cc(=O)n(C2CCCC2)c2nc(Nc3ccc(N4CCNCC4)cc3)ncc12`, the Ratio IC50 in data set [1] was more than 11.

As to `CN1C2CC1CN(c1ccc(Nc3ncc4ccn(CC5CCOCC5)c4n3)cc1)C2`, the Ratio IC50 in data set [1] is 2000.

The fraction unbound is free concentration divided by total concentration. For `CN1CCN(c2ccc(Nc3ncc4cc(C#N)c(=O)n(C5CCCC5)c4n3)cc2)CC1` [NARAZACICLIB], the Kp uu at 6 h in data set [2] turned out to be 0.036. In addition, in data set [3], the fraction unbound at 6 h, 10 µM was determined as 0.006.
